Structures can show the parent of a compound that is named as a salt.
Columns and labels:
[1] = Acute toxicity (LD50) in rats; settings: rat, in vivo, Rats (SD)
[2] = tested on: dogs suffering from Goldblatt hypertension; assay: Effect of single oral administration on blood pressure of dogs suffering from Goldblatt hypertension; assay type: in vivo, Female beagles; settings: 10 mg/kg oral; for reduction in the blood pressure / blood pressure after 3 h: once, after 3 h; for reduction in the blood pressure: result in words; for blood pressure after 3 h / blood pressure before administration: systolic pressure; for blood pressure after 3 h: control group 201±3 mmHg, unchanged after 5 h; for blood pressure before administration: artery of the tail
Protocol: Nicardipine hydrochloride was used as a control. The dose was 5 ml/kg.

[3] = Solubility (physico-chemical properties); assay type: physicochemical
[4] = tested on: dogs suffering from Goldblatt hypertension; settings: 10 mg/kg oral
Protocol: Nicardipine hydrochloride was used as a control. The dose was 5 ml/kg. Commercially available tablets were given as they were by oral administration. Female beagles suffering from Goldblatt hypertension of "one clip one kidney" type were used. […] The blood pressure and heart rate were measured in the artery of the tail of each dog in a closed manner with a device for continuously measuring the systolic pressure (SCS-301; a product of Shimadzu Seisakusho Ltd.). […] The effects of eperisone hydrochloride given once by oral administration on the blood pressure and heart beat were compared with those of nicardipine hydrochloride. The nine beagles were divided into three groups, i.e. a control group, a group to which 10 mg/kg of eperisone hydrochloride was given and another group to which 10 mg/kg of nicardipine hydrochloride was given. Nine beagles were subjected to the tests of all three groups. Namely, administration was discontinued at intervals of one week according to Latin square. The blood pressure and heart rate were measured before administration and then at specified intervals from one hour to five hours after administration. The analysis of variance was conducted by the time series analysis. The test groups were compared with the control group by Dunnet's method.

[5] = Acute toxicity (LD50) in dogs; settings: dog, in vivo, po, Dogs (Beagles)
[6] = Acute toxicity (LD50) in mice; settings: mouse, in vivo, Mice (ICR)

Row | SMILES | LD50 ([1]; iv, female) | LD50 ([1]; iv, male) | LD50 ([1]; po, female) | LD50 ([1]; po, male) | reduction in the blood pressure [2] | blood pressure after 3 h [2] | blood pressure before administration [2] | solubility in acetic anhydride ([3]; acetic anhydride) | solubility in acetone ([3]; acetone) | solubility in ethanol ([3]; ethanol) | solubility in ether ([3]; ether) | solubility in water, methanol, chloroform or glacial acetic acid ([3]; water, methanol, chloroform or glacial acetic acid) | solubility in water ([3]; water, agents used in the pharmacological experiment) | heart rate before administration [4] | LD50 ([5]; female) | LD50 ([5]; male) | LD50 ([6]; iv, female) | LD50 ([6]; iv, male) | LD50 ([6]; po, female) | LD50 ([6]; po, male)
1 | CCc1ccc(C(=O)C(C)CN2CCCCC2)cc1 (stereo not drawn) [eperisone hydrochloride, Eperisone hydrochloride] | 60 mg/kg | 51 mg/kg | 1300 mg/kg | 1300 mg/kg | a significant reduction in the blood pressure was observed | 172±3 mmHg | 202±4 mmHg | relatively difficultly soluble | difficultly soluble | relatively easily soluble | scarcely soluble | easily soluble | water-soluble | 97±5 beats/min | > 750 mg/kg | > 1080 mg/kg | 43.5 mg/kg | 43 mg/kg | 940 mg/kg | 1040 mg/kg
2 | COC(=O)C1=C(C)NC(C)=C(C(=O)OCCN(C)Cc2ccccc2)C1c1cccc([N+](=O)[O-])c1 (stereo not drawn) [nicardipine hydrochloride, Nicardipine hydrochloride, reference compound] |  |  |  |  | a significant reduction in the blood pressure was also observed | 164±4 mmHg | 200±4 mmHg |  |  |  |  |  |  | 106±7 beats/min |  |  |  |  |  | 
